# Patent publication US8486991B2, “Enantiomerically pure phosphoindoles as HIV inhibitors” (Idenix Pharmaceuticals, Inc., priority 2006, dated 2013)
# “Also recorded” adds a separate entry of the source. Where two headings read alike, the source gives them in different places.
# Tests used:
# [1] = test system: HIV-1 RT K103N mutant enzyme; assay type: biochemical; conditions: Table 2; mutant vs wild-type
# From the text: In Vitro Antiviral Activity Against Additional Mutant HIV RT Enzymes
# [2] = test system: HIV-1 BH10 K103N mutant virus; test: microbe, parasite or virus in culture; assay type: cell-based; conditions: for EC50: unit inferred; for Fold Change, K103N: Table 7
# [3] = test system: EFV resistant, NNRTI resistant, NRTI and PI mutant HIV-1 viruses; assay type: cell-based; conditions: for activity against EFV resistant viruses compared with EFV: including double and triple mutants
# [4] = test system: stimulated human primary blood mononuclear cells (PBMC); test: in vitro; conditions: 3 days
# Procedure: Cell viability was determined via MTT staining.
# Sprague-Dawley rats = test: 14-day oral toxicity, rats; assay type: in vivo, rat; conditions: for thyroid microscopic findings / effects on food consumption or body weight: rats; for thyroid microscopic findings: all dose groups except low dose compound III-treated females; for effects on food consumption or body weight: once daily oral gavage 14 days, up to 500 (I) or 450 (III) mg/kg/day
# Procedure: (§1) Sprague-Dawley rats and cynomolgus monkeys were dosed once daily for 14 days via oral gavage with compound I or compound III or dose vehicle (68% Capmul PG-8, 20% PEG 400, 2% Tween 20, and 10% Labrasol) according to GLP. There were 10 male and 10 female rats, and there were 3 male and 3 female monkeys. Rats and monkeys were dosed with 0, 50, 150 or 500 mg/kg/day compound I or with 0, 50, 150, 450 mg/kg/day compound III.
# (§2) Toxicity was assessed using clinical observations, body weights, food consumption, and clinical pathology (hematology, coagulation, and serum chemistry).
# (§3) A comprehensive necropsy and gross pathological examination was performed on all animals and selected organs and tissues were collected for histological evaluation.
# (§4) Determinations of hematocrit, hemoglobin concentration, erythrocyte count, total leukocyte count, and platelet count were conducted on all samples. Leukocyte differential and morphologic assessments were performed.
# (§5) Clinical biochemistry determinations included activities of alanine aminotransferase (ALT), aspartate aminotransferase (AST), gamma-glutamyltranspeptidase (GGT), and alkaline phosphatase (ALP) and concentrations of blood urea nitrogen (BUN), creatinine, total protein, albumin, globulin, glucose, cholesterol, triglycerides, total bilirubin, and electrolyte levels (Na, K, P, Cl, Ca).
# cynomolgus monkeys = test: 14-day oral toxicity, monkeys; assay type: in vivo, cynomolgus monkey; conditions: for effects on food consumption or body weight: once daily oral gavage 14 days, up to 500 (I) or 450 (III) mg/kg/day
# Procedure: as §1, §2, §3, §4, §5
# Urine samples (monkeys only) were evaluated macroscopically and microscopically and tested for pH, bilirubin, glucose, protein, ketones, blood, urobilinogen, nitrites, leukocytes, and specific gravity.
# CYP2C19 = CYP2C19 (Homo sapiens, UniProt P33261); test: Human liver microsomal CYP450 inhibition, CYP2C19; conditions: for IC50, CYP2C19: human liver microsomes
# Sequence of CYP2C19 (P33261 whole entry): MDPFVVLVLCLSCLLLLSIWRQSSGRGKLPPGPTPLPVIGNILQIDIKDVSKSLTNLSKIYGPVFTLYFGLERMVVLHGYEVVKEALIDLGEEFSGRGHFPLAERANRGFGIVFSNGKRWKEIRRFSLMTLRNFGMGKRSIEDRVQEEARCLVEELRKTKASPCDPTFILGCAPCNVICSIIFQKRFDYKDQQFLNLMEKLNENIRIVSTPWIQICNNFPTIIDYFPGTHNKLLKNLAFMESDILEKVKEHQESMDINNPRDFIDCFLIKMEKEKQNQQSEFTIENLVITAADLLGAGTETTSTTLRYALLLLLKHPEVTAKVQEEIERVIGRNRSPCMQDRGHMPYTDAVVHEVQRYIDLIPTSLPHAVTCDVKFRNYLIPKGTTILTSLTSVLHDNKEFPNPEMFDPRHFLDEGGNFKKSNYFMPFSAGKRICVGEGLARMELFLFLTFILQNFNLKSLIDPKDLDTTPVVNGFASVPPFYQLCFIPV
# Procedure: In addition, the type of inhibition was also evaluated.
# Enzyme kinetic studies of cytochrome P450 isozyme inhibition were conducted using human liver microsomes.
# CYP2C9 = CYP2C9 (Homo sapiens, UniProt P11712); test: Recombinant CYP450 inhibition, Luciferin-H, CYP2C9; assay type: in vitro ADME; parameters: from tissue; host or cells: pooled human liver microsomes; conditions: highest concentration tested 10 μM
# Sequence of CYP2C9 (P11712 whole entry, the tested form may be a part): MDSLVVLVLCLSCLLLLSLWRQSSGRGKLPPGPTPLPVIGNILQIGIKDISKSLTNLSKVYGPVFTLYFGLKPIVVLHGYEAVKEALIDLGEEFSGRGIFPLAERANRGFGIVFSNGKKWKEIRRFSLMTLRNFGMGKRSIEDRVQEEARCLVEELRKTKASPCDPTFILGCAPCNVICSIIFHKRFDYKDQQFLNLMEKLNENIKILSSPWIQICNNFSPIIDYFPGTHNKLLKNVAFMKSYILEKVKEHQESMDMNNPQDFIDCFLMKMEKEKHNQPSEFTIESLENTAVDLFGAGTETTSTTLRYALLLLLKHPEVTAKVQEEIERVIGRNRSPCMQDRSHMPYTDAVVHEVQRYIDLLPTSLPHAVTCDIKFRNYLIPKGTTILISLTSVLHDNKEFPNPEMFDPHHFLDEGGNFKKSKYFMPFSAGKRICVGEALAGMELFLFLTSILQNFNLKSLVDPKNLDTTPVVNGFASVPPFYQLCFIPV
# Procedure: CYP2C9 inhibition was performed by incubating a luminogenic CYP450 substrate Luciferin-H with CYP2C9 and an NADPH regeneration system. Luminescence measured using a Fusion plate reader.
# [5] = test system: CYP1A2 (activation of AhR in CYP1A2-DRE cells); test: CYP1A2 induction screen in CYP1A2-DRE cells; assay type: cell-based, human; conditions: extent compared with TCDD, omeprazole, 2-acetylaminofluorene
# From the text: The potential for in vitro induction of CYP3A4 was screened in DPX2 cells. The DPX2 cell line is a derivative of a human hepatocellular carcinoma cell line (HepG2) transformed with the human pregnane x receptor (PXR) and a reporter gene vector containing the enhancer region of CYP3A4. The potential for in vitro induction of CYP1A2 was screened in CYP1A2-DRE cells. The CYP1A2-DRE cell line is a stably transformed HepG2 cells with dioxin response elements (DRE) and reporter gene containing CYP1A2 promoter elements. The extent of CYP3A4 induction was determined by comparing the activation of PXR obtained with test article to that obtained with rifampicine (potent inducer), mifepristone (moderate inducer) and androstanol (weak inducer). The extent of CYP1A2 induction was determined by comparing the activation of the aryl hydrocarbon receptor (AhR) obtained with test article to that obtained with TCDD (potent inducer), omeprazole (moderate inducer), and 2-acetylaminofluorene (weak inducer).
# [6] = In vivo pharmacokinetics, rats; parameters: species or system rat; conditions: plasma
# Procedure: All animals received a single oral or intravenous dose of compound in either polyethylene glycol 400 (PEG400) or a mixture of 10% ethanol (EtOH), 10% dimethylacetamine (DMA) and 80% PEG400 at the indicated dose level. Plasma concentration data were acquired using sensitive and specific LC-MS/MS methods. Pharmacokinetic data from the toxicity study included aspects of gender differences, variability and exposure.
# Blood samples (1.5-2.5 mL) were collected in heparinized tubes at 0 (pre-dose), 5 (IV only), 10, 20, 30 min, 1, 2, 4, 6, 8, 12 (PO only) and 24 hr after dosing. Plasma was separated and stored at −70° C. until analysis.
# Concentrations of unlabeled compound I and compound III within plasma samples and excreta from rat, dog and monkey PK studies were identified through high performance liquid chromatographic (HPLC) methods that incorporated tandem mass spectrometric detection (LC-MS/MS).
# The absolute oral bioavailability was determined in pharmacokinetic by comparison of AUC values of parent compound following single intravenous and oral doses of in rats (compound III only), dogs and monkeys.
SMILES,"Fold Change, K103N [1] [fold]","EC50 ([2]; Human immunodeficiency virus 1, MT4, read-out: EC50, K103N, Example 16 comparative tables) [nM]","Fold Change, K103N [2] [fold]","EC50 ([2]; read-out: EC50, K103N, Example 16 comparative tables) [nM]",activity against sub-panel of mutants bearing NRTI and PI mutations [3],potency relative to Compound III against EFV resistant viruses with double and triple mutants [3],activity against EFV resistant viruses compared with EFV [3],SI values from cytotoxicity and activity data in PBMC [4],thyroid microscopic findings (Sprague-Dawley rats),effects on food consumption or body weight (Sprague-Dawley rats),effects on food consumption or body weight (cynomolgus monkeys),IC50 (CYP2C19) [µM],"IC50, CYP2C19 (CYP2C19)",IC50 (CYP2C9) [µM],"Induction, CYP1A2-DRE (CYP1A2) [5]","Tmax ([6]; male, Rat, 10 mg/kg PO-Fasted, 3M, mean) [min]","bioavailability ([6]; male, Rat, 10 mg/kg PO-Fasted, 3M, IV 2 mg/kg, read-out: BA (absolute oral bioavailability)) [%]","bioavailability ([6]; rat, po, text b979, (5 mg/kg), read-out: oral bioavailability in rats, exploratory PK studies) [%]","organ weights (Sprague-Dawley rats; rats (females only), mid and high doses, livers microscopically unremarkable)","organ weights (cynomolgus monkeys; mid and high doses, livers microscopically unremarkable)"
"CO[P@](=O)(c1cc(C)cc(/C=C/C#N)c1)c1c(C(N)=O)[nH]c2ccc(Cl)c(F)c12 [Compound I, (2-Carbamoyl-5-chloro-4-fluoro-1H-indol-3-yl)-[3-((E)-2-cyano-vinyl)-5-methyl-phenyl]-(R)-phosphinic acid methyl ester]",3.2 ± 3.5,0.6 ± 0.2,0.9 ± 0.4,0.9,highly active,2-3,superior to EFV,"> 100,000",minimal to mild thyroid follicular cell hypertrophy/hyperplasia,No effects,No effects,10.2,not observed,8.4 ± 0.67,,,,,,
"CO[P@](=O)(c1cc(C)cc(/C=C/C#N)c1)c1c(C(N)=O)[nH]c2ccc(Cl)cc12 [Compound III, (2-Carbamoyl-5-chloro-1H-indol-3-yl)-[3-((E)-2-cyano-vinyl)-5-methyl-phenyl]-(R)-phosphinic acid methyl ester]",,,1.2 ± 0.4,,highly active,,superior to EFV,,minimal to mild thyroid follicular cell hypertrophy/hyperplasia,No effects,No effects,10.2,not observed,6.85 ± 0.48,moderate inducers; also recorded: Not inducer (n = 1),24,38,38,increased liver weights,increased liver weights
